Reference: patent publication US11414379B2, “SPAK kinase inhibitors as neuroprotective agents” (United States Government as represented by the Department …, priority 2018, dated 2022)

Assays:
Assay in all cases: Kinase panel (Dundee profiling)
Assay type in all cases: biochemical
IKKe = IKKe (Homo sapiens, UniProt Q14164); settings: read-out: % residual kinase activity
Procedure, shortened: (§1)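 Each recombinant kinase of a 140-member panel was assayed radioisotopically in the presence of compound at 1 or 10 μM, and activity was expressed as percent remaining versus DMSO control (n=3, mean±SEM).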

NEK6 = NEK6 (Homo sapiens, UniProt Q9HC98); settings: read-out: % residual kinase activity
Procedure, shortened: as §1

LKB1 = LKB1 (Homo sapiens, UniProt Q15831); settings: read-out: % residual kinase activity
Procedure, shortened: as §1

RSK2 = RSK2 (Homo sapiens, UniProt P51812); settings: read-out: % residual kinase activity
Procedure, shortened: as §1

PAK2 = PAK2 (Homo sapiens, UniProt Q13177); settings: read-out: % residual kinase activity
Procedure, shortened: as §1

EF2K = EF2K (Homo sapiens, UniProt O00418); settings: read-out: % residual kinase activity
Procedure, shortened: as §1

ERK2 = ERK2 (Homo sapiens, UniProt P28482); settings: read-out: % residual kinase activity
Procedure, shortened: as §1

Lck = Lck (Homo sapiens, UniProt P06239); settings: read-out: % residual kinase activity
Procedure, shortened: as §1

ERK8 = ERK8 (Homo sapiens, UniProt Q8TD08); settings: read-out: % residual kinase activity
Procedure, shortened: as §1

TAK1 = TAK1 (Homo sapiens, UniProt O43318); settings: read-out: % residual kinase activity
Procedure, shortened: as §1

EPH-A2 = EPH-A2 (Homo sapiens, UniProt P29317); settings: read-out: % residual kinase activity
Procedure, shortened: as §1

CK1δ = CK1δ (Homo sapiens, UniProt P48730); settings: read-out: % residual kinase activity
Procedure, shortened: as §1

HIPK3 = HIPK3 (Homo sapiens, UniProt Q9H422); settings: read-out: % residual kinase activity
Procedure, shortened: as §1

CDK9-Cyclin T1 = CDK9-Cyclin T1 (Homo sapiens, UniProt P50750); settings: read-out: % residual kinase activity
Procedure, shortened: as §1

PAK4 = PAK4 (Homo sapiens, UniProt O96013); settings: read-out: % residual kinase activity
Procedure, shortened: as §1

JAK2 = JAK2 (Homo sapiens, UniProt O60674); settings: read-out: % residual kinase activity
Procedure, shortened: as §1

PKBa = PKBa (Homo sapiens, UniProt P31749, S473D); settings: read-out: % residual kinase activity
Procedure, shortened: as §1

JNK3 = JNK3 (Homo sapiens, UniProt P53779); settings: read-out: % residual kinase activity
Procedure, shortened: as §1

TTBK2 = TTBK2 (Homo sapiens, UniProt Q6IQ55); settings: read-out: % residual kinase activity
Procedure, shortened: as §1

TGFBR1 = TGFBR1 (Homo sapiens, UniProt P36897); settings: read-out: % residual kinase activity
Procedure, shortened: as §1

TTBK1 = TTBK1 (Homo sapiens, UniProt Q5TCY1); settings: read-out: % residual kinase activity
Procedure, shortened: as §1

DYRK1A = DYRK1A (Homo sapiens, UniProt Q13627); settings: read-out: % residual kinase activity
Procedure, shortened: as §1

RSK1 = RSK1 (Homo sapiens, UniProt Q15418); settings: read-out: % residual kinase activity
Procedure, shortened: as §1

MAPKAP-K2 = MAPKAP-K2 (Homo sapiens, UniProt P49137)
Procedure, shortened: as §1

NEK2a = NEK2a (Homo sapiens, UniProt P51955); settings: read-out: % residual kinase activity
Procedure, shortened: as §1

PDGFRA = PDGFRA (Homo sapiens, UniProt P16234); settings: read-out: % residual kinase activity
Procedure, shortened: as §1

CSK = CSK (Homo sapiens, UniProt P41240); settings: read-out: % residual kinase activity
Procedure, shortened: as §1

EPH-B2 = EPH-B2 (Homo sapiens, UniProt P29323); settings: read-out: % residual kinase activity
Procedure, shortened: as §1

TESK1 = TESK1 (Homo sapiens, UniProt Q15569); settings: read-out: % residual kinase activity
Procedure, shortened: as §1

MLK1 = MLK1 (Homo sapiens, UniProt P80192); settings: read-out: % residual kinase activity
Procedure, shortened: as §1

CAMKKb = CAMKKb (Homo sapiens, UniProt Q96RR4); settings: read-out: % residual kinase activity
Procedure, shortened: as §1

MAPKAP-K2, sequence (P49137 whole entry, species assumed): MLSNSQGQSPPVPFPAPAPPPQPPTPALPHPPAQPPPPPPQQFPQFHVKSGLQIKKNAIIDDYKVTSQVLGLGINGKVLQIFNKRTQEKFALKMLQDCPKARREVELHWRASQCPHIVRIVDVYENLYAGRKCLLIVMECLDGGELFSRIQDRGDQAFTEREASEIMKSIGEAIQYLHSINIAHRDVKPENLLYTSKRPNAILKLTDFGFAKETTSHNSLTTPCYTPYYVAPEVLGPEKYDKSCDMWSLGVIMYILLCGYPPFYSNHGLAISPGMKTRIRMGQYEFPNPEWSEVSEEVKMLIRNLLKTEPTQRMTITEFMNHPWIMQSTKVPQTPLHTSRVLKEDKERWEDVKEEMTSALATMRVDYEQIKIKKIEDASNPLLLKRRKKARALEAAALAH
EPH-B2, sequence (P29323 19-1055, species assumed): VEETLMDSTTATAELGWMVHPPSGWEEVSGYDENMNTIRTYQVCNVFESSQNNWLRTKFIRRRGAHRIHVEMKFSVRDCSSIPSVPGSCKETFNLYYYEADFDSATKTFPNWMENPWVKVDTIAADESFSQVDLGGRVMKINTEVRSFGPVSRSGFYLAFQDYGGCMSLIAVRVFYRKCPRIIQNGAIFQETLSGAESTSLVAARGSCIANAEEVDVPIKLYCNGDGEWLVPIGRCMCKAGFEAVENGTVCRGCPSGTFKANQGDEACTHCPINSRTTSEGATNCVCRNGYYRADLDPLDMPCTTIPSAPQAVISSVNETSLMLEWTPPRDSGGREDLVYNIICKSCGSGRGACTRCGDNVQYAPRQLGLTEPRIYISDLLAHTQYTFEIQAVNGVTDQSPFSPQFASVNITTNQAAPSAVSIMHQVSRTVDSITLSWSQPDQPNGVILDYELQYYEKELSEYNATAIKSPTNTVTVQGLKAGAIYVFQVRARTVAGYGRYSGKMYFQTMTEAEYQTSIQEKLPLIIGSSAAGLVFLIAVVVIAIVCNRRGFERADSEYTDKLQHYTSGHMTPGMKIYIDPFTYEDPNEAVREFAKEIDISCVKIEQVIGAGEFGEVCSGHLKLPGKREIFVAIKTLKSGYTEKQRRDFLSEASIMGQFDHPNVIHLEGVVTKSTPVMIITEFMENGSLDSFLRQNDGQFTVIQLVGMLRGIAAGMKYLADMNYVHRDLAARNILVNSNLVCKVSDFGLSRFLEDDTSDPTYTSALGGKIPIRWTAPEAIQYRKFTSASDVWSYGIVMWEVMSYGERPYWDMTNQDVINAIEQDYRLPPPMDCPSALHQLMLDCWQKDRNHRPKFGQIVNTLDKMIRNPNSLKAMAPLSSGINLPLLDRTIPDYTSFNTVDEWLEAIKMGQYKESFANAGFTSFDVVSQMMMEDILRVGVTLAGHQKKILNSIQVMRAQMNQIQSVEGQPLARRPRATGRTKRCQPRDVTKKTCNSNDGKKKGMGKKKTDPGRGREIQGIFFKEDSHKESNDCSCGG
LKB1, sequence (Q15831 whole entry, species assumed): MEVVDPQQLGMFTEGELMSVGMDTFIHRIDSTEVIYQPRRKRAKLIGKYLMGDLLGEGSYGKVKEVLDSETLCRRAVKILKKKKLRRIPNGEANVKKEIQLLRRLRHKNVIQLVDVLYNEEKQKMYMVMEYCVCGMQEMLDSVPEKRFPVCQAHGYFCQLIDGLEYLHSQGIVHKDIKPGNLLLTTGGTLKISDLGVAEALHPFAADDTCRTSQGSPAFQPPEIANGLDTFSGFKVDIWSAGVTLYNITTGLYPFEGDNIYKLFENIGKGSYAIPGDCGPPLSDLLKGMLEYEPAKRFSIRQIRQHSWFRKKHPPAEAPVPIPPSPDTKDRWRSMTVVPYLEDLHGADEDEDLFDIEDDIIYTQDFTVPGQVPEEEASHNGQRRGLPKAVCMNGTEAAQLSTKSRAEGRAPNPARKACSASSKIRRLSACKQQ
LKB1, sequence (Q7RTN6 whole entry partner, species assumed): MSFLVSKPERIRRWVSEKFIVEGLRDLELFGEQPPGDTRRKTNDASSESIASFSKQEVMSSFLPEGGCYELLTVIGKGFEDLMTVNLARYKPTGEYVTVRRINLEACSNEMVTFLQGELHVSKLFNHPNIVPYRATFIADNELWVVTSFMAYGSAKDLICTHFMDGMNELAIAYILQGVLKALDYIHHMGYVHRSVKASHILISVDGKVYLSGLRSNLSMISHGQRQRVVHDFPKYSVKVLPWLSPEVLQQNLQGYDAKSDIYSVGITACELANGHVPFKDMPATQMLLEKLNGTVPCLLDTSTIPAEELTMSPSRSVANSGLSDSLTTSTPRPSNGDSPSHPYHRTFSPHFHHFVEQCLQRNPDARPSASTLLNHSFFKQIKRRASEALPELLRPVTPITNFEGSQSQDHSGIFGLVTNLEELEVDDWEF
LKB1, sequence (Q9Y376 whole entry partner, species assumed): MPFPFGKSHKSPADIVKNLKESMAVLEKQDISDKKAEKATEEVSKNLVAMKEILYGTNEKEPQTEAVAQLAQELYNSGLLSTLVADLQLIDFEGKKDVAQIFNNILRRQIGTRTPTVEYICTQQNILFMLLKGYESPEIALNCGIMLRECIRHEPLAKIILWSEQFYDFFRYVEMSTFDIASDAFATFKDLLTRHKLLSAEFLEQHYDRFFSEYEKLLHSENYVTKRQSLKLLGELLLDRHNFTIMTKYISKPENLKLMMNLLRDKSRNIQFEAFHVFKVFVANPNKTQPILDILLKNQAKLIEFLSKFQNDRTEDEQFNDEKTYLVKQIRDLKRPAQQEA
ERK2, sequence (P28482 whole entry, species assumed): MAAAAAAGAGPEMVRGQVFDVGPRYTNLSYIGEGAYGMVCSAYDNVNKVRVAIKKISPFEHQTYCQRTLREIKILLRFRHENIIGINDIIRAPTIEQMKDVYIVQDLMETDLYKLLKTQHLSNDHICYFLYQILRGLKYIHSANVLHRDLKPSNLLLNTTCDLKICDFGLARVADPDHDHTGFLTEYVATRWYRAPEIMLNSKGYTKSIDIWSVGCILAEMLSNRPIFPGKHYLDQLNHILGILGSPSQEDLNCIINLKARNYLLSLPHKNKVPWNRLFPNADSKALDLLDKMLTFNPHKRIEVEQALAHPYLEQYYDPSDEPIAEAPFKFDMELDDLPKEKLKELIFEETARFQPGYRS
EPH-A2, sequence (P29317 24-976, species assumed): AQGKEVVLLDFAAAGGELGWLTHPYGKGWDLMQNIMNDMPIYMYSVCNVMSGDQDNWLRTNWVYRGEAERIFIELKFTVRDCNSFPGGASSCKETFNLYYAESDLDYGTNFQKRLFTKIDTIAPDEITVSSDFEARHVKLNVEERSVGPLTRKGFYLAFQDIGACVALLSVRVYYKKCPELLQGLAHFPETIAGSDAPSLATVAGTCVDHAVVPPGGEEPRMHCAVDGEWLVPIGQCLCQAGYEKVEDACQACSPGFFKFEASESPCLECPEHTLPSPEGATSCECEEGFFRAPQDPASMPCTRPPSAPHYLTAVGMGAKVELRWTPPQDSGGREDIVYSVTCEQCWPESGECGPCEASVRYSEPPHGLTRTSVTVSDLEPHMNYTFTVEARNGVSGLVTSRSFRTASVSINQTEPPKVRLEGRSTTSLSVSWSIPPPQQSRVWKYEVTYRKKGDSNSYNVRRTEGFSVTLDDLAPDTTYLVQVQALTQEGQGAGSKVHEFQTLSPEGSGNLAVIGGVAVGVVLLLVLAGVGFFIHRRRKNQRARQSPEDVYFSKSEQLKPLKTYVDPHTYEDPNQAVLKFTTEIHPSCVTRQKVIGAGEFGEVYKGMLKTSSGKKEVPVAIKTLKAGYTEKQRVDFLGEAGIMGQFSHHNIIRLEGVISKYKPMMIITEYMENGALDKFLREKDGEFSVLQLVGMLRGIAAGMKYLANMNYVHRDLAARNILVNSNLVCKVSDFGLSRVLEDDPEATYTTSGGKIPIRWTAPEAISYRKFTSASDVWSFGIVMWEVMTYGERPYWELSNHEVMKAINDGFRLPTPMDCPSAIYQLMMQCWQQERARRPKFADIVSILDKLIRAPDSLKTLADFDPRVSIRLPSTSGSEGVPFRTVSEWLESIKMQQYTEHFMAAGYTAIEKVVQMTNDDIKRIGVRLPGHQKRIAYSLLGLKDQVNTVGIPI
JNK3, sequence (P53779 whole entry, species assumed): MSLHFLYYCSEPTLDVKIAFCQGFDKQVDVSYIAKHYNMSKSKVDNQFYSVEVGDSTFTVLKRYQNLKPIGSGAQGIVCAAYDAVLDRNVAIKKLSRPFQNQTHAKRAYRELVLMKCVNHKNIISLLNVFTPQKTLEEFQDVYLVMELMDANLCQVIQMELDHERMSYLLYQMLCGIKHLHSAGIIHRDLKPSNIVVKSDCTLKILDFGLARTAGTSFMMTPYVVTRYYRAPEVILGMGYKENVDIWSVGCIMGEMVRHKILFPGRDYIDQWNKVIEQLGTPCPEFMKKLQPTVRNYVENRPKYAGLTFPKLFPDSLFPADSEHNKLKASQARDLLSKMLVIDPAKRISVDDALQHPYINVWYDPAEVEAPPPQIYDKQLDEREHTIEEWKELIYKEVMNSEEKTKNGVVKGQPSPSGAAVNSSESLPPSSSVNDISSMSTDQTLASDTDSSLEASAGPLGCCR
CK1δ, sequence (P48730 whole entry): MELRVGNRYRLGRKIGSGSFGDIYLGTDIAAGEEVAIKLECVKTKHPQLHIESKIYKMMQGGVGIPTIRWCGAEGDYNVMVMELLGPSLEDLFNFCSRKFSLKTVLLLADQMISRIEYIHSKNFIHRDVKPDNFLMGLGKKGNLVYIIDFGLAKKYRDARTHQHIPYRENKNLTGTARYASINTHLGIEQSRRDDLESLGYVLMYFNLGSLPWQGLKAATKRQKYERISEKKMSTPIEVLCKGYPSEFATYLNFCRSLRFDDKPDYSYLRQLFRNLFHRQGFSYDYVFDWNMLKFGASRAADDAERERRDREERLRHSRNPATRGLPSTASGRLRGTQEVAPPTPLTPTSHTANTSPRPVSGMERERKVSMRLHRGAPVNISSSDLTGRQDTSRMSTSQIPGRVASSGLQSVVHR

Cc1cc(C(C#N)c2ccc(Cl)cc2)c(Cl)cc1NC(=O)c1cc(Cl)ccc1O (stereo not drawn) [ZT-1a, 5-chloro-N-(5-chloro-4-((4-chlorophenyl)(cyano)methyl)-2-methylphenyl)-2-hydroxy-benzamide]
remaining activity at 1 µM (IKKe; 1 μM): 87 ± 13% | remaining activity at 10 µM (IKKe; 10 μM): 59 ± 5% | remaining activity at 1 µM (NEK6; 1 μM): 107 ± 6% | remaining activity at 10 µM (NEK6; 10 μM): 108 ± 1% | remaining activity at 1 µM (LKB1; 1 μM): 107 ± 8% | remaining activity at 10 µM (LKB1; 10 μM): 115 ± 11% | remaining activity at 1 µM (RSK2; 1 μM): 116 ± 5% | remaining activity at 10 µM (RSK2; 10 μM): 101 ± 3% | remaining activity at 1 µM (PAK2; 1 μM): 110 ± 4% | remaining activity at 10 µM (PAK2; 10 μM): 93 ± 8% | remaining activity at 1 µM (EF2K; 1 μM): 104 ± 13% | remaining activity at 10 µM (EF2K; 10 μM): 56 ± 2% | remaining activity at 1 µM (ERK2; 1 μM): 111 ± 25% | remaining activity at 10 µM (ERK2; 10 μM): 75 ± 3% | remaining activity at 1 µM (Lck; 1 μM): 112 ± 13% | remaining activity at 10 µM (Lck; 10 μM): 127 ± 14% | remaining activity at 1 µM (ERK8; 1 μM): 104 ± 11% | remaining activity at 10 µM (ERK8; 10 μM): 63 ± 3% | remaining activity at 1 µM (TAK1; 1 μM): 117 ± 22% | remaining activity at 10 µM (TAK1; 10 μM): 103 ± 5% | remaining activity at 1 µM (EPH-A2; 1 μM): 89 ± 23% | remaining activity at 10 µM (EPH-A2; 10 μM): 78 ± 11% | remaining activity at 1 µM (CK1δ; 1 μM): 116 ± 5% | remaining activity at 10 µM (CK1δ; 10 μM): 114 ± 9% | remaining activity at 1 µM (HIPK3; 1 μM): 84 ± 3% | remaining activity at 10 µM (HIPK3; 10 μM): 76 ± 2% | remaining activity at 1 µM (CDK9-Cyclin T1; 1 μM): 104% | remaining activity at 10 µM (CDK9-Cyclin T1; 10 μM): 108 ± 1% | remaining activity at 1 µM (PAK4; 1 μM): 81 ± 16% | remaining activity at 10 µM (PAK4; 10 μM): 51 ± 3% | remaining activity at 1 µM (JAK2; 1 μM): 125 ± 6% | remaining activity at 10 µM (JAK2; 10 μM): 123 ± 8% | remaining activity at 1 µM (PKBa; 1 μM): 104 ± 1% | remaining activity at 10 µM (PKBa; 10 μM): 91 ± 4% | remaining activity at 1 µM (JNK3; 1 μM): 63 ± 15% | remaining activity at 10 µM (JNK3; 10 μM): 60 ± 10% | remaining activity at 1 µM (TTBK2; 1 μM): 101 ± 32% | remaining activity at 10 µM (TTBK2; 10 μM): 98 ± 34% | remaining activity at 1 µM (TGFBR1; 1 μM): 63 ± 9% | remaining activity at 10 µM (TGFBR1; 10 μM): 77 ± 5% | remaining activity at 1 µM (TTBK1; 1 μM): 119 ± 5% | remaining activity at 10 µM (TTBK1; 10 μM): 102 ± 2% | remaining activity at 1 µM (DYRK1A; 1 μM): 119 ± 7% | remaining activity at 10 µM (DYRK1A; 10 μM): 103 ± 1% | remaining activity at 1 µM (RSK1; 1 μM): 95 ± 2% | remaining activity at 10 µM (RSK1; 10 μM): 87 ± 4% | inhibition at 10 µM (MAPKAP-K2; 10 μM, read-out: inhibition of MAPKAP-K2 activity compared to DMSO control): 85 ± 7% | remaining activity at 1 µM (MAPKAP-K2; MAPKAP-K2, 1 μM, read-out: % residual kinase activity): 91 ± 13% | remaining activity at 10 µM (MAPKAP-K2; MAPKAP-K2, 10 μM, read-out: % residual kinase activity): 13 ± 7% | remaining activity at 1 µM (NEK2a; 1 μM): 85 ± 12% | remaining activity at 10 µM (NEK2a; 10 μM): 91 ± 6% | remaining activity at 1 µM (PDGFRA; 1 μM): 84 ± 11% | remaining activity at 10 µM (PDGFRA; 10 μM): 80 ± 7% | remaining activity at 1 µM (CSK; 1 μM): 96 ± 8% | remaining activity at 10 µM (CSK; 10 μM): 106 ± 29% | remaining activity at 1 µM (EPH-B2; 1 μM): 77 ± 2% | remaining activity at 10 µM (EPH-B2; 10 μM): 81 ± 8% | remaining activity at 1 µM (TESK1; 1 μM): 109 ± 3% | remaining activity at 10 µM (TESK1; 10 μM): 77 ± 10% | remaining activity at 1 µM (MLK1; 1 μM): 94 ± 4% | remaining activity at 10 µM (MLK1; 10 μM): 81 ± 21% | remaining activity at 1 µM (CAMKKb; 1 μM): 115 ± 10% | remaining activity at 10 µM (CAMKKb; 10 μM): 102 ± 9%
